Results taken from patent US12508328B2, “Bio-activated reporters to visualize, in real time, specific gene therapy products” (Northwestern University, priority 2019, dated 2025).
Where two headings read alike, the source gives them in different places.

Assays:
[1] = Complex stability measured by relaxivity (T1); assay type: physicochemical; conditions: for change in T1 over time (stability): 1 mM in enzyme buffer pH 7.3, over 140 hours; for change in T1 over time (stability) in cell culture media: over 140 hours
[2] = Relaxivity (1.4 T) in MOPS and MOPS/CO3^2−; assay type: physicochemical; conditions: for Δr1 relative to the cleaved control product 11: intramolecular series 10a-d, 37° C.
Description: While measurements of q indicate how well an agent can restrict water access to the GdIII center, the most important property for a bio-activated contrast agent is the change in relaxivity upon enzymatic cleavage (r1). To evaluate the signal change in the presence of CO32−, relaxivities of the intermolecular activated agents were measured in two different buffer conditions, the non-coordinating buffer MOPS and MOPS/CO32−.
T1 relaxation times were obtained for 5a-c (FIG. 13), and complexes 10a-d (FIG. 14), and 11 at 37° C. at 60 MHz (1.4 T) on a Bruker mq60 minispec spectrometer (Billerica, MA). Three 1 mM solutions of each complex were prepared in four different buffer conditions 1) 10 mm 3-(N-morpholino)propanesulfonic acid (MOPS), 100 mm NaCl, pH 7.4, 2) 10 mm MOPS, 24 mm NaHCO3, 100 mm NaCl, pH 7.4, 3) Dulbecco's Phosphate Buffer (DPBS) pH 7.3 Life Technologies, and 4) b-galactosidase enzyme assay buffer, 200 mm sodium phosphate, 100 mm bmercaptoethanol, 2 mm MgCl2, pH 7.3 (FIG. 15). Three sets of five serial dilutions (about 1 mm, 0.5 mm, 0.25 mm, 0.125 mm and 0.0625 mm) were prepared for each complex. T1 relaxation rates were measured using an inversion recovery pule sequence (t1_ir_mb) with a 10 ms first pulse separation, recycle delay and final pulse separation ≥5 T1. T1 relaxation rates were plotted as a function of GdIII concentrations as determined by ICP-MS, r1/r2 was obtained from linear fit of concentration vs. T1 as described in Equation (1).

β-gal [3] = molecular target: T1, β-gal (Escherichia coli, UniProt P00722); conditions: for T1 signal in the presence of β-gal compared with cleaved agent 11: 24 h incubation
T1 sequence (P00722 2-1024): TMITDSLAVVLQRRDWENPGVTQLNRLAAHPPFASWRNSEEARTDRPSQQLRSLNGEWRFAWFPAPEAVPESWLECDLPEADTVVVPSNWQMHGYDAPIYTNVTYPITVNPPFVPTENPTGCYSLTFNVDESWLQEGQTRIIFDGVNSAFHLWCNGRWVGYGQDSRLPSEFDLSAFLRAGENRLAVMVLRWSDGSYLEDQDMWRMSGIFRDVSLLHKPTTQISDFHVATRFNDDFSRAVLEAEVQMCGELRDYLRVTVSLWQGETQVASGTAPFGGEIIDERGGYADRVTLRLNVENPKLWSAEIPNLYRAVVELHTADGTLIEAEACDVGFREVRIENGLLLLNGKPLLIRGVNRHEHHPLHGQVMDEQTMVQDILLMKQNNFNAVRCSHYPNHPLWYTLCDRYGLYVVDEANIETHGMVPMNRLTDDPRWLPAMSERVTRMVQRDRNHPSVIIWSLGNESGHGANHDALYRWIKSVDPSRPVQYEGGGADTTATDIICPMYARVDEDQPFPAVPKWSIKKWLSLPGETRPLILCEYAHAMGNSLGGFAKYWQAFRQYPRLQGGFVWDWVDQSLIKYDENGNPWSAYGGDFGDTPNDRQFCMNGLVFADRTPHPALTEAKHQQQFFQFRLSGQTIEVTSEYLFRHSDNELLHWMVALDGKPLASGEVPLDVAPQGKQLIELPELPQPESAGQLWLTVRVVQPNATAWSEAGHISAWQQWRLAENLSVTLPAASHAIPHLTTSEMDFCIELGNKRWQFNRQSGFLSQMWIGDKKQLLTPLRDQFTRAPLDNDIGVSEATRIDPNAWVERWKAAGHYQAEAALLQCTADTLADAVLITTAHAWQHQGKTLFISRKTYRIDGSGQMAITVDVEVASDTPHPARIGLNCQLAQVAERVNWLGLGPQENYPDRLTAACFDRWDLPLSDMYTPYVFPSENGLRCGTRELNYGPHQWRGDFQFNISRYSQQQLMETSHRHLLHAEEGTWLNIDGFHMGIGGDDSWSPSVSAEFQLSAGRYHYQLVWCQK
Description: MR images were acquired on a Bruker Pharmscan 7 T imaging spectrometer fitted with shielded gradient coils at 25° C. Image analysis was carried out using Paravision 5.0 p13 software (Bruker, Billerica, MA, USA) with monoexponential curve-fitting of image intensities of selected regions of interest (ROIs) for each axial slice. […] Exact Gd(III) concentration was verified by ICP-MS. Either 10 μL of enzyme stock solution (50% enzyme assay buffer, 50% glycerol, at 521 U/mL β-gal) or 10 μL of a 50% enzyme assay buffer/50% glycerol solution (used as a control) were added to a 190 μL aliquot of each complex. After this addition, the final concentration of each complex was 475 μM, with 26.1 U/mL of β-gal. The solutions were incubated at 37° C. for 24 hours, then aliquoted to 5, ¾″ flame-sealed Pasteur pipets. The bottom sections of the flame-sealed pipets were then scored with a glass scribe, broken into small capillaries, and imaged using a RF RES 300 1H 089/023 quadrature transmit receive 23 mm volume coil (Bruker BioSpin, Billerica, MA, USA). T1 relaxation times were measured using a rapid-acquisition rapid-echo RARE-VTR T1-map pulse sequence with the following imaging parameters: TE (11.0 ms), TR (500.0 ms), field of view (FOV)=25×25 mm2, matrix size (MTX)=256×256, number of axial slices=5, slice thickness (SI)=1.0 mm, and averages (NEX)=3, and total scan time was 2:36:57. T2 values were measured using a multislice multiecho (MSME) T2-map pulse sequence, with static TR (5000 ms) and 32 fitted echoes in 11 ms intervals (11, 22, . . . , 352 ms). Imaging parameters were as follows: FOV=25×25 mm2, MTX=256×256, number of axial slices=4, SI=1.0 mm, NEX=3, and a total scan time=48 min. T1 images and times can be found in FIG. 14 and T2 maps and times can be found in FIG. 18.

β-gal enzyme (lacZ) = conditions: for MR signal enhancement in lacZ-expressing mice, 1 h post injection: 9.4 T T1 weighted FLASH
Description: In vivo MR Imaging (9.4 T) Hemizygous transgenic mice (n=2) constitutively expressing the lacZ gene that encodes the β-gal enzyme (strain ROSA26-lacZ) were purchased from The Jackson Laboratory (Bar Harbor, ME). A non-transgenic littermate was used as a control. […] Mice were imaged with MRI at baseline, and 1, 4, and 24 hours post injection.
MRI was performed on a 9.4T Bruker Biospec MRI system with a 30 cm bore, a 12 cm gradient insert, and an Autopac automated sample positioning system (Bruker Biospin Inc, Billerica, MA). Animals were anesthetized in an induction chamber with 3% isoflurane and transferred to a dedicated imaging bed with isoflurane delivered via nosecone at 1-2%. Respiratory signals were monitored using an MR-compatible physiologic monitoring system (SA Instruments, Stonybrook, NY) and a warm water circulating system was used to maintain body temperature. Animals were placed in the prone position and a quadrature radiofrequency coil with inner diameter 40 mm was mounted on the bed. Mice were imaged using a FLASH gradient echo sequence using the following parameters: TR/TE/α=100 ms/2.2 ms/45°, MTX=192×192, FOV 4×4 cm, 9 slices of 1 mm thick, 0.3 mm slice gap, and 1 signal average.

[4] = Terbium(III) luminescence: determination of q; assay type: physicochemical; conditions: 10a′-d′, Horrock's equation; MOPS/CO3^2− buffer pH 7.4
Description: The q number in the absence and presence of CO32− was determined using TbIII analogues (5a′, 5b′, 5c′, and 11′). Given the similarities in chemistry amongst the lanthanides, TbIII luminescence is a convenient and established method for determining the coordination environment in corresponding GdIII chelates. The narrow […] emission at 543 nm and the relatively long lived 0.4 ms excited state lifetime for Tb(H2O)x facilitates accurate assessment of the inner-coordination sphere, differentiating between coordination of OH, OD, NH, and ND oscillators. 38 Luminescent decay curves were fit to the empirically derived Horrock's equation (Eq. 2). It was expected that the ortho position would have the lowest q in the presence of CO32−, creating a “dark” state with the lowest relaxivity.
The number of water molecules directly coordinated to the lanthanide center (q), was determined for each of the TbIII analogues 5a′-c′ (see Table 1), 10a′-d′ (Table 2), and 11′ in MilliQ water and MOPS/carbonate buffer (10 mm MOPS, 24 mm NaHCO3, pH 7.4).
The monoexponential fluorescence decay of an ≈1 mm solution of each complex was determined using a Hitachi F4500 fluorometer (Schaumburg, IL). An excitation wavelength of 308 nm and an emission wavelength of […] were used, and 25 scans were acquired and averaged for each solution. The averaged data was fit with a monoexponential decay function, and the time constant (t) for each solution was determined in triplicate. The fluorescence decay curves of the complexes were measured in both H2O and D2O, and in both buffer and deuterated buffer, obtained by lyophilizing and re-suspending the buffer in D2O three times (FIG. 17A-E). The q values were calculated using the empirically derived Horrock's equation for Tb(III) (Eq. 2): […]

β-gal [5] = molecular target: T1, β-gal; conditions: dark to bright
Description: The acetate arm is attached to an amine present in the linker between the macrocycle and the galactopyranose substrate.

[6] = cited from earlier work
[7] = cited from earlier work; for link to nephrogenic systemic fibrosis (NSF): clinical use
[8] = IP 200 microliters of 40 mM, 9.4 T
[9] = intravenous, two-compartment open-model

CCOC(=O)CCCNc1cc(COC(=O)NCCN2CCN(CC(=O)[O-])CCN(CC(=O)[O-])CCN(CC(=O)[O-])CC2)ccc1O[C@@H]1O[C@H](CO)[C@H](O)[C@H](O)[C@H]1O.[Gd+3] [10b, Gadolinium(III)-1-(4-(2-(1-(4,7,10-triscarboxymethyl-(1,4,7,10tetraazacyclododecyl)))ethylcarbamoyloxymethyl)-2-((4-ethoxy-4-oxobutyl)amino)phenyl)-β-D-galactopyranose]
change in T1 over time (stability) [1]: No significant change in T1 | Δr1 in MOPS ([2]; 10a-d, MOPS): largest | Δr1 relative to the cleaved control product 11 [2]: positive | change in MR contrast +/−β-gal (β-gal [3]; 7 T T1 solution phantoms): greatest change in MR contrast | T1 signal in the presence of β-gal compared with cleaved agent 11 (β-gal [3]; 7 T solution phantoms): does not appear to fully activate | T1 (β-gal [3]; 7 T solution phantoms, assay buffer, 24 h, +β-gal 26.1 U/mL): 378 ms

CCOC(=O)CCCCCNc1cc(COC(=O)NCCN2CCN(CC(=O)[O-])CCN(CC(=O)[O-])CCN(CC(=O)[O-])CC2)ccc1O[C@@H]1O[C@H](CO)[C@H](O)[C@H](O)[C@H]1O.[Gd+3] [10c, Gadolinium(III)-1-(4-(2-(1-(4,7,10-triscarboxymethyl-(1,4,7,10tetraazacyclododecyl)))ethylcarbamoyloxymethyl)-2-((6-ethoxy-6-oxohexyl)amino)phenyl)-β-D-galactopyranose]
change in T1 over time (stability) [1]: No significant change in T1 | change in T1 over time (stability) in cell culture media [1]: No significant change in T1 | change in signal in the presence of CO3^2− ([2]; 10a-d, MOPS/CO3^2−): highest overall change in signal | Δr1 relative to the cleaved control product 11 [2]: 20% | MR signal enhancement in lacZ-expressing mice, 4 hrs post injection (β-gal enzyme (lacZ); [8]): signal enhancement was present but at a reduced level | MR signal enhancement in non-transgenic control mice (β-gal enzyme (lacZ); [8]): No signal enhancement was observed | MR signal enhancement in lacZ-expressing mice, 1 h post injection (β-gal enzyme (lacZ); IP 200 microliters of 40 mM): Global signal enhancement was observed | MR signal enhancement in lacZ-expressing mice, 1 h post injection (β-gal enzyme (lacZ); IP 200 microliters of 40 mM, listed as complex 3): Global signal enhancement was observed | MR signal enhancement in lacZ-expressing mice, 1 h post injection (β-gal enzyme (lacZ); IP 200 microliters of 40 mM, listed as β-galactosidase responsive agent): Signal enhancement was noted in the liver and kidneys | MR signal enhancement in non-transgenic control mice (β-gal enzyme (lacZ); IP 200 microliters of 40 mM, 9.4 T, listed as complex 3): No signal enhancement was observed | MR signal enhancement in non-transgenic control mice (β-gal enzyme (lacZ); IP 200 microliters of 40 mM, 9.4 T, listed as β-galactosidase responsive agent): minimal | time for MR signal to return to baseline (β-gal enzyme (lacZ); LacZ mice, IP injection): ≤ 24 h | route of clearance (β-gal enzyme (lacZ); bladder very bright at 4 hour time point in one LacZ mouse): cleared renally | q (buffer) [4]: 0.1 | change in relaxivity when exposed to β-gal (post enzyme cleavage) (β-gal [5]): 90% | T1 signal in the presence of β-gal compared with cleaved agent 11 (β-gal [3]; 7 T solution phantoms): approximately the same | change in relaxivity (β-gal [3]; at both 1.4 and 7 T): positive

CNC[C@H](O)[C@@H](O)[C@H](O)[C@H](O)CO.CNC[C@H](O)[C@@H](O)[C@H](O)[C@H](O)CO.O=C([O-])CN(CCN(CC(=O)[O-])CC(=O)O)CCN(CC(=O)[O-])CC(=O)O.[Gd+3] [Magnevist, gadopentate dimeglumine]
volume of distribution ([6]; equal to the extracellular space): ~0.266 L/kg | binding to human serum protein ([6]; in vivo): has not been shown to bind | distribution half-life [6, 9]: 12 min | elimination half-life [6, 9]: 96 min | dose excreted in the urine by 24 hours ([6]; intravenous): 91% | dose excreted in the urine within 6 hours ([6]; intravenous): ~83% | link to nephrogenic systemic fibrosis (NSF) [7]: associated with the onset of NSF | dose shown to enhance after intrathecal contrast delivery ([7]; intrathecal): 0.004 mmol/kg | safe dose in preclinical safety studies ([7]; intravenous delivery): 50 × the normal dose

CCOC(=O)CCCCCCCNc1cc(COC(=O)NCCN2CCN(CC(=O)[O-])CCN(CC(=O)[O-])CCN(CC(=O)[O-])CC2)ccc1O[C@@H]1O[C@H](CO)[C@H](O)[C@H](O)[C@H]1O.[Gd+3] [10d, Gadolinium(III)-1-(4-(2-(1-(4,7,10-triscarboxymethyl-(1,4,7,10tetraazacyclododecyl)))ethylcarbamoyloxymethyl)-2-((8-ethoxy-8-oxooctyl)amino)phenyl)-β-D-galactopyranose]
change in T1 over time (stability) [1]: No significant change in T1 | change in T1 over time (stability) in cell culture media [1]: No significant change in T1 | Δr1 relative to the cleaved control product 11 [2]: negative | T1 signal in the presence of β-gal compared with cleaved agent 11 (β-gal [3]; 7 T solution phantoms): approximately the same

CNC(=O)CN(CCN(CCN(CC(=O)[O-])CC(=O)NC)CC(=O)[O-])CC(=O)[O-].[Gd+3] [Omniscan]
link to nephrogenic systemic fibrosis (NSF) [7]: associated with the onset of NSF

CCOC(=O)CNc1cc(COC(=O)NCCN2CCN(CC(=O)[O-])CCN(CC(=O)[O-])CCN(CC(=O)[O-])CC2)ccc1O[C@@H]1O[C@H](CO)[C@H](O)[C@H](O)[C@H]1O.[Gd+3] [10a, Gadolinium(III)-1-(4-(2-(1-(4,7,10-triscarboxymethyl-(1,4,7,10tetraazacyclododecyl)))ethylcarbamoyloxymethyl)-2-((2-ethoxy-2-oxoethyl)amino)phenyl)-β-D-galactopyranose]
change in T1 over time (stability) [1]: No significant change in T1 | relaxivity within the intramolecular series ([2]; 10a-d): highest relativity of the series | Δr1 relative to the cleaved control product 11 [2]: negative
